Test results published in patent US10681909B2, “Herbicidal triazoles” (FMC Corporation, priority 2014, dated 2020).

Legend:
[1] = tested on: morningglory; experiment: Test A preemergence; format: in vivo, Ipomoea spp.; conditions: Ipomoea, pre-emergence, 240 h, 0 to 100 scale (0 no effect, 100 complete control), read-out: Plant response rating, Morningglory; for pest or weed control at 125 g/ha: 125 g ai/ha; for pest or weed control at 500 g/ha: 500 g ai/ha, approx. 10 d
Procedure, shortened: (§1)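 Loam/sand soil mix; compound in non-phytotoxic solvent + surfactant. Pre: directed soil spray right after planting seed. Post: potted plants 2–10 cm, 1–2 leaf stage, sprayed with same formulation.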

[2] = tested on: corn; experiment: Test A preemergence; format: in vivo, Zea mays; conditions: Zea mays, pre-emergence, 240 h, 0 to 100 scale (0 no effect, 100 complete control); for Corn plant response rating (crop injury, 0 = no effect, 100 = complete kill) at 125 g/ha: 125 g ai/ha; for Corn plant response rating (crop injury, 0 = no effect, 100 = complete kill) at 500 g/ha: 500 g ai/ha, approx. 10 d
Procedure, shortened: as §1

[3] = tested on: nutsedge, yellow; experiment: Test C preemergence; format: in vivo, Cyperus esculentus; conditions: for Plant response rating (scale of 0 to 100 where 0 is no effect and 100 is complete control): Nutsedge, Yellow, preemergence; for Nutsedge, Yellow plant response rating (0 to 100): Preemergence, visual rating after 13 to 15 d
Excerpt: Seeds of plant species selected from blackgrass (Alopecurus myosuroides), ryegrass, Italian (Italian ryegrass, Lolium multiflorum), wheat (winter wheat, Triticum aestivum), galium (catchweed bedstraw, Galium aparine), corn (Zea mays), crabgrass, large (large crabgrass, Digitaria sanguinalis), foxtail, giant, (giant foxtail, Setaria faberii), johnsongrass (Sorghum halepense), lambsquarters (Chenopodium album), morningglory (Ipomoea coccinea), nutsedge, yellow (yellow nutsedge, Cyperus esculentus), pigweed (Amaranthus retroflexus), ragweed (common ragweed, Ambrosia elatior), soybean (Glycine max), barnyardgrass (Echinochloa crus-galli), oilseed rape (Brassica napus), waterhemp (common waterhemp, Amaranthus rudis), and velvetleaf (Abutilon theophrasti) were planted into a blend of loam soil and sand and treated preemergence with test chemicals formulated in a non-phytotoxic solvent mixture which included a surfactant. At the same time, plants selected from these crop and weed species and also chickweed (common chickweed, Stellaria media), oat, wild (wild oat, Avena fatua), and kochia (Kochia scoparia), were planted in pots containing Sunshine Redi-Earth® planting medium comprising spaghnum peat moss, vermiculite, starter nutrients and dolomitic limestone and treated with postemergence applications of test chemicals formulated in the same manner. Plants ranged in height from 2 to 18 cm (1- to 4-leaf stage) for postemergence treatments. […] A dash (-) response means no test result.

[4] = tested on: speedwell; experiment: Test D preemergence; format: in vivo, Veronica persica; conditions: for Plant response rating: Speedwell: scale 0 to 100; for Plant response rating (0 to 100), Speedwell: 16 g ai/ha, 0 is no effect, 100 is complete control
Excerpt: (§2) Seeds of plant species selected from bluegrass (annual bluegrass, Poa annua), blackgrass (Alopecurus myosuroides), canarygrass (Phalaris minor), chickweed (common chickweed, Stellaria media), galium (catchweed bedstraw, Galium aparine), bromegrass, down (downy bromegrass, Bromus tectorum), Russian thistle (Salsola kali), field poppy (Papaver rhoeas), field violet (Viola arvensis), foxtail, green (green foxtail, Setaria viridis), deadnettle (henbit deadnettle, Lamium amplexicaule), ryegrass, Ital. (Italian ryegrass, Lolium multiflorum), kochia (Kochia scoparia), lambsquarters (Chenopodium album), oilseed rape (Brassica napus), pigweed (Amaranthus retroflexus), chamomile (scentless chamomile, Matricaria inodora), speedwell (bird's-eye speedwell, Veronica persica), barley, spring (spring barley, Hordeum vulgare), wheat, spring (spring wheat, Triticum aestivum), buckwheat, wild (wild buckwheat, Polygonum convolvulus), wild mustard (Sinapis arvensis), oat, wild (wild oat, Avena fatua), radish, wild (wild radish, Raphanus raphanistrum), […]), barley, winter (winter barley, Hordeum vulgare), and wheat, winter (winter wheat, Triticum aestivum) were planted into a silt loam soil and treated preemergence with test chemicals formulated in a non-phytotoxic solvent mixture which included a surfactant. At the same time, these species were planted in pots containing Sunshine Redi-Earth® planting medium comprising spaghnum peat moss, vermiculite, starter nutrients and dolomitic limestone and treated with postemergence applications of the test chemicals formulated in the same manner. Plants ranged in height from 2 to 18 cm (1- to 4-leaf stage). Treated plants and controls were maintained in a controlled growth environment for 14 to 21 d after which time all species were compared to controls and visually evaluated. […] A dash (-) response means no test result.

[5] = tested on: galium; experiment: Test D postemergence; format: in vivo, Galium aparine; conditions: scale 0 to 100
Excerpt: as §2

[6] = tested on: foxtail, green; experiment: Test D postemergence; format: in vivo, Setaria viridis; conditions: scale 0 to 100
Excerpt: as §2

[7] = tested on: speedwell; experiment: Test D postemergence; format: in vivo, Veronica persica; conditions: scale 0 to 100
Excerpt: as §2

[8] = tested on: ragweed; experiment: Test A preemergence; format: in vivo, Ambrosia elatior; conditions: 0 to 100 scale (0 no effect, 100 complete control)
Procedure, shortened: (§3)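 Seeds sown in loam soil–sand blend received a directed preemergence soil spray of test chemical in non-phytotoxic solvent with surfactant; postemergence plants, 2 to 10 cm at one- to two-leaf stage, were sprayed with the same formulation. Injury visually rated versus untreated controls after ~10 d in greenhouse, 0–100 scale.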

[9] = tested on: blackgrass; experiment: Test A postemergence; format: in vivo, Alopecurus myosuroides; conditions: 0 to 100 scale (0 no effect, 100 complete control), approx. 10 d
Procedure, shortened: as §3

Structure (SMILES)	Plant response rating (scale of 0 to 100 where 0 is no effect and 100 is complete control) ([3]; 250 g ai/ha)	Nutsedge, Yellow plant response rating (0 to 100) ([3]; 31 g ai/ha)	Nutsedge, Yellow plant response rating (0 to 100) ([3]; 62 g ai/ha)	Plant response rating: Speedwell ([4]; 62 g ai/ha)	Plant response rating: Speedwell ([4]; 125 g ai/ha)	Plant response rating: Galium ([5]; 31 g ai/ha)	Plant response rating: Galium ([5]; 62 g ai/ha)	Plant response rating: Galium ([5]; 125 g ai/ha)	Plant response rating: Foxtail, Green ([6]; 31 g ai/ha)	Plant response rating: Foxtail, Green ([6]; 62 g ai/ha)	Plant response rating: Foxtail, Green ([6]; 125 g ai/ha)	Plant response rating: Speedwell ([7]; 31 g ai/ha)	Plant response rating: Speedwell ([7]; 62 g ai/ha)	Plant response rating: Speedwell ([7]; 125 g ai/ha)	Plant response rating (scale of 0 to 100 where 0 is no effect and 100 is complete control) ([3]; 125 g ai/ha)	Plant response rating, Ragweed ([8]; 500 g ai/ha, approx. 10 d)	Plant response rating, Blackgrass ([9]; 125 g ai/ha)	Plant response rating, Blackgrass ([9]; 500 g ai/ha)	Plant response rating (0 to 100), Speedwell [4]	Plant response rating: Galium ([5]; 16 g ai/ha)	further results
CCc1nc(-c2ccc(C(F)(F)F)cc2)nn1Cc1ccnc(C(F)(F)F)c1 [Compound 1, 4-[[5-ethyl-3-[4-(trifluoromethyl)phenyl]-1H-1,2,4-triazol-1-yl]methyl]-2-(trifluoromethyl)pyridine]	15	0	5	100	100	70	70	90	25	45	65	100	100	100	–	–	–	–	–	–	pest or weed control at 125 g/ha [1]: 30%; pest or weed control at 500 g/ha [1]: 80%; Corn plant response rating (crop injury, 0 = no effect, 100 = complete kill) at 125 g/ha [2]: 10%; Corn plant response rating (crop injury, 0 = no effect, 100 = complete kill) at 500 g/ha [2]: 20%; Plant response rating: Speedwell ([4]; 250 g ai/ha): 100; Plant response rating: Galium ([5]; 250 g ai/ha): 90; Plant response rating: Foxtail, Green ([6]; 250 g ai/ha): 75; Plant response rating: Speedwell ([7]; 250 g ai/ha): 100
CCOc1nc(-c2ccc(F)cc2)nn1Cc1ccnc(C(F)(F)F)c1 [Compound 8, 4-[[5-ethoxy-3-(4-fluorophenyl)-1H-1,2,4-triazol-1-yl]methyl]-2-(trifluoromethyl)pyridine]	80	10	40	100	100	75	90	95	40	75	75	100	100	100	55	–	–	–	–	–	pest or weed control at 125 g/ha [1]: 100%; pest or weed control at 500 g/ha [1]: 100%; Corn plant response rating (crop injury, 0 = no effect, 100 = complete kill) at 125 g/ha [2]: 90%; Corn plant response rating (crop injury, 0 = no effect, 100 = complete kill) at 500 g/ha [2]: 100%; Plant response rating: Speedwell ([4]; 250 g ai/ha): 100; Plant response rating: Galium ([5]; 250 g ai/ha): 95; Plant response rating: Foxtail, Green ([6]; 250 g ai/ha): 85; Plant response rating: Speedwell ([7]; 250 g ai/ha): 100
FC(F)(F)COc1nc(-c2ccccc2)nn1Cc1ccnc(C(F)(F)F)c1 [Compound 24]	15	0	0	100	100	70	65	75	25	65	65	75	75	90	5	40	40	60	80	55	Plant response rating: Foxtail, Green ([6]; 16 g ai/ha): 15; Plant response rating: Speedwell ([7]; 16 g ai/ha): 75
CCOc1nc(-c2ccccc2)nn1Cc1ccnc(C(F)(F)F)c1 [Compound 27]	60	5	10	100	100	75	100	100	65	80	95	85	95	95	35	100	70	80	95	70	Plant response rating, Ragweed ([8]; 125 g ai/ha): 90; Plant response rating: Foxtail, Green ([6]; 16 g ai/ha): 35; Plant response rating: Speedwell ([7]; 16 g ai/ha): 75
COc1nc(-c2ccc(Cl)cc2)nn1Cc1ccnc(C(F)(F)F)c1 [Compound 28]	–	–	–	100	100	70	75	80	35	60	80	75	85	80	–	40	10	40	75	65	Plant response rating, Ragweed ([8]; 125 g ai/ha): 10; Plant response rating: Foxtail, Green ([6]; 16 g ai/ha): 25; Plant response rating: Speedwell ([7]; 16 g ai/ha): 75
Fc1ccc(-c2nc(OCC(F)(F)F)n(Cc3ccnc(C(F)(F)F)c3)n2)cc1 [Compound 30]	10	0	0	100	100	75	80	85	75	85	90	100	100	100	0	80	30	80	100	70	Plant response rating, Ragweed ([8]; 125 g ai/ha): 80; Plant response rating: Foxtail, Green ([6]; 16 g ai/ha): 55; Plant response rating: Speedwell ([7]; 16 g ai/ha): 100
